Data taken from patent US7763615B2, “Ecteinascidin analogs for use as antitumour agents” (priority 2001, dated 2010).
Like-named read-outs stand apart in the source and are kept apart here.

Legend:
SK-OV3 = assay: Inhibition of cells growth by colorimetric assay (SRB), SK-OV3; assay type: cell-based
Text: (§1) The finality of these assays is to interrupt the growth of a “in vitro” tumor cell culture by means of a continued exhibition of the cells to the sample to be testing.
(§2) A colorimetric type of assay, using sulphorhodamine B (SRB) reaction has been adapted for a quantitative measurement of cell growth and viability [following the technique described by Philip Skehan, et al. (1990), New colorimetric cytotoxicity assay for anticancer drug screening, J. Natl. Cancer Inst., 82:1107-1112]
(§3) This form of the assay employs 96 well cell culture microplates of 9 mm diameter (Faircloth, 1988; Mosmann, 1983). Most of the cell lines are obtained from American Type Culture Collection (ATCC) derived from different human cancer types.
(§4) Cells are maintained in RPMI 1640 10% FBS, supplemented with 0.1 g/l penicillin and 0.1 g/l streptomycin sulphate and then incubated at 37° C., 5% CO2 and 98% humidity. For the experiments, cells were harvested from subconfluent cultures using trypsin and resuspended in fresh medium before plating.
(§5) Cells are seeded in 96 well microtiter plates, at 5×10^3 cells per well in aliquots of 195 μl medium, and they are allowed to attach to the plate surface by growing in drug free medium for 18 hours. Afterward, samples are added in aliquots of 5 μl in a ranging from 10 to 10^−8 μg/ml, dissolved in DMSO/EtOH/PBS (0.5:0.5:99). After 48 hours exposure, the antitumor effect are measured by the SRB methodology: cells are fixed by adding 50 μl of cold 50% (wt/vol) trichloroacetic acid (TCA) and incubating for 60 minutes at 4° C. Plates are washed with deionized water and dried. One hundred μl of SRB solution (0.4% wt/vol in 1% acetic acid) is added to each microtiter well and incubated for 10 minutes at room temperature. Unbound SRB is removed by washing with 1% acetic acid. Plates are air dried and bound stain is solubilized with Tris buffer. Optical densities are read on a automated spectrophotometric plate reader at a single wavelength of 490 nm.
(§6) The values for mean+/− SD of data from triplicate wells are calculated. Some parameters for cellular responses can be calculated: GI=growth inhibition, TGI=total growth inhibition (cytostatic effect) and LC=cell killing (cytotoxic effect).

[1] = tested on: H9c2 (2-1), normal rat cardiac muscle cells; details: 24 h
Procedure: In order to assess the cytotoxicity of the drugs to normal cells, we used 96 well plates plated at a density of 5000 cells per well (except for the FDC-P1 which were plated at 12,000 cells per well) with normal cell lines (ATCC, Table 1) maintained as per the directions of the ATCC: AML-12, normal mouse liver cells; NRK-52E, normal rat kidney cells; L8, normal rat skeletal muscle cells; FDC-P1, normal mouse myelogeous stem cells; and H9c2 (2-1), normal rat cardiac muscle cells. The cells in each plate were permitted to settle overnight before adding the test drug.
To each well (100 μl medium) 10 μl of drug in media was added at varying concentrations (1×10-10-0.01 mg/ml final concentration) and further incubated overnight at 37° C. with 5% CO2. After 24 h the following assays were performed. All experiments were repeated at least 3 times and were assayed in duplicate.
MTS assay (CellTiter 96 aqueous) was performed according to the manufacturer's (Promega) directions (for all cell types). Cell viability (mitochondrial activity) is determined via enzymatic conversion of the formazan substrate.

[2] = tested on: AML-12, normal mouse liver cells; details: 24 h
H-MEC-1 = assay: Inhibition of cells growth by colorimetric assay (SRB), H-MEC-1; assay type: cell-based
Text: as §1, §2, §3, §4, §5, §6

[3] = tested on: L8, normal rat skeletal muscle cells; details: 24 h
IGROV = assay: cells; assay type: cell-based; details: for GI50 / TGI: 48 hours exposure, SRB; for CC50: read-out: LC50, 48 hours exposure, SRB
Method in brief: (§7)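 SRB colorimetric growth assay: 5×10^3 cells/well, 18 h attachment, 48 h continuous compound exposure at 10–10^−8 μg/ml in DMSO/EtOH/PBS. TCA fixation, SRB stain, OD 490 nm; triplicate wells, GI, TGI and LC derived.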

LOVO-DOX = assay: cells; assay type: cell-based
Method in brief: as §7

HT29 = assay: cells; assay type: cell-based
Method in brief: as §7

K562 = assay: cells; assay type: cell-based; details: K562, 48 hours exposure, SRB; for CC50: read-out: LC50
Method in brief: as §7

LNCAP = assay: cells; assay type: cell-based
Method in brief: as §7

SK-BR3 = assay: cells; assay type: cell-based; details: SK-BR3, 48 hours exposure, SRB; for CC50: read-out: LC50
Method in brief: as §7

LOVO = assay: cells; assay type: cell-based
Method in brief: as §7

MEL-28 = assay: cells; assay type: cell-based; details: MEL-28, 48 hours exposure, SRB; for CC50: read-out: LC50
Method in brief: as §7

DU145 = assay: cells; assay type: cell-based
Method in brief: as §7

IGROV-ET = assay: cells; assay type: cell-based
Method in brief: as §7

A549 = assay: cells; assay type: cell-based; details: A549, 48 hours exposure, SRB; for GI50: read-out: GI50; for CC50: read-out: LC50
Method in brief: as §7

PANC-1 = assay: cells; assay type: cell-based; details: PANC-1, 48 hours exposure, SRB; for CC50: read-out: LC50
Method in brief: as §7

[4] = tested on: FDC-P1, normal mouse myelogeous stem cells; details: 24 h
[5] = tested on: NRK-52E, normal rat kidney cells; details: 24 h
[6] = H-MEC-1, 48 hours exposure, SRB
[7] = LOVO-DOX, 48 hours exposure, SRB
[8] = Homo sapiens, HT-29, 48 h, HT29, 48 hours exposure, SRB
[9] = Homo sapiens, LNCaP, 48 h, 48 hours exposure, SRB
[10] = Homo sapiens, LoVo, 48 h, 48 hours exposure, SRB
[11] = IGROV-ET, 48 hours exposure, SRB

COc1c(C)cc2c(c1O)[C@@H]1C3[C@@H]4SC[C@]5(NC(C)Cc6c5[nH]c5ccc(O)cc65)C(=O)COC[C@@H](c5c6c(c(C)c(OC(C)=O)c54)OCO6)N3[C@@H](O)[C@H](C2)N1C (stereo partly shown) [Compound 37]
GI50 (SK-OV3; Homo sapiens, SK-OV-3, 48 h, SK-OV3, 48 hours exposure, SRB): 3.57 nM
CC50 (SK-OV3; Homo sapiens, SK-OV-3, 48 h, read-out: LC50, SK-OV3, 48 hours exposure, SRB): 12700 nM
TGI (SK-OV3; SK-OV3, 48 hours exposure, SRB): 1.07E−08 Molar
Heart [1]: 1.74E−08
Liver [2]: 5.46E−09
TGI (H-MEC-1; [6]): 3.58E−08 Molar
GI50 (H-MEC-1; Homo sapiens, HMEC-1, 48 h, H-MEC-1, 48 hours exposure, SRB): 2.22 nM
CC50 (H-MEC-1; Homo sapiens, HMEC-1, 48 h, read-out: LC50, H-MEC-1, 48 hours exposure, SRB): 12700 nM
Skeletal [3]: 2.22E−08
GI50 (IGROV): 2.82 nM
TGI (IGROV): 7.06E−09 Molar
CC50 (IGROV): 613 nM
GI50 (LOVO-DOX; Homo sapiens, 48 h, LOVO-DOX, 48 hours exposure, SRB): 61.7 nM
CC50 (LOVO-DOX; Homo sapiens, 48 h, read-out: LC50, LOVO-DOX, 48 hours exposure, SRB): 12700 nM
TGI (LOVO-DOX; [7]): 4.10E−07 Molar
GI50 (HT29; [8]): 3.71 nM
IC (TGI) (HT29; [8]): 14 nM
CC50 (HT29; Homo sapiens, HT-29, 48 h, read-out: LC50, HT29, 48 hours exposure, SRB): 12700 nM
GI50 (K562; Homo sapiens, K562, 48 h): 0.492 nM
IC (TGI) (K562; Homo sapiens, K562, 48 h): 1.36 nM
CC50 (K562): 12.7 nM
GI50 (LNCAP; [9]): 0.26 nM
IC (TGI) (LNCAP; [9]): 0.856 nM
CC50 (LNCAP; Homo sapiens, LNCaP, 48 h, read-out: LC50, LNCAP, 48 hours exposure, SRB): 4.75 nM
GI50 (SK-BR3): 2.96 nM
TGI (SK-BR3): 6.80E−09 Molar
CC50 (SK-BR3): 141 nM
GI50 (LOVO; [10]): 2.92 nM
IC (TGI) (LOVO; [10]): 8.97 nM
CC50 (LOVO; Homo sapiens, LoVo, 48 h, read-out: LC50, LOVO, 48 hours exposure, SRB): 12700 nM
GI50 (MEL-28; Homo sapiens, SK-MEL-28, 48 h): 2.4 nM
IC (TGI) (MEL-28; Homo sapiens, SK-MEL-28, 48 h): 6.82 nM
CC50 (MEL-28): 33.5 nM
GI50 (DU145; DU145, 48 hours exposure, SRB): 4.6 nM
IC (TGI) (DU145; Homo sapiens, DU-145, 48 h, DU145, 48 hours exposure, SRB): 10.6 nM
CC50 (DU145; Homo sapiens, DU-145, 48 h, read-out: LC50, DU145, 48 hours exposure, SRB): 12700 nM
IC (TGI) (IGROV-ET; Homo sapiens, 48 h, IGROV-ET, 48 hours exposure, SRB): 119 nM
CC50 (IGROV-ET; Homo sapiens, 48 h, read-out: LC50, IGROV-ET, 48 hours exposure, SRB): 12700 nM
GI50 (IGROV-ET; [11]): 37.6 nM
TGI (A549): 2.17E−08 Molar
GI50 (A549; Homo sapiens, A549, 48 h): 4.23 nM
CC50 (A549): 138 nM
GI50 (PANC-1; Homo sapiens, PANC-1, 48 h): 3.12 nM
IC (TGI) (PANC-1; Homo sapiens, PANC-1, 48 h): 11.8 nM
CC50 (PANC-1): 3020 nM
Myelo [4]: 4.59E−09
Kidney [5]: 2.92E−08

COc1c(C)cc2c(c1O)[C@@H]1C3[C@@H]4SC[C@]5(NC(C)Cc6c5[nH]c5ccc(O)cc65)C(=O)COC[C@@H](c5c6c(c(C)c(OC(C)=O)c54)OCO6)N3[C@@H](O)[C@H](C2)N1C (stereo partly shown) [Compound 38]
GI50 (SK-OV3; SK-OV3, 48 hours exposure, SRB): 2.55 nM
TGI (SK-OV3; SK-OV3, 48 hours exposure, SRB): 7.13E−09 Molar
CC50 (SK-OV3; read-out: LC50, SK-OV3, 48 hours exposure, SRB): 12700 nM
Heart [1]: 2.96E−09
Liver [2]: 1.39E−10
GI50 (H-MEC-1; [6]): 3.06 nM
TGI (H-MEC-1; [6]): 8.93E−09 Molar
CC50 (H-MEC-1; read-out: LC50, H-MEC-1, 48 hours exposure, SRB): 12700 nM
Skeletal [3]: 1.29E−08
GI50 (IGROV): 0.757 nM
TGI (IGROV): 2.89E−09 Molar
CC50 (IGROV): 8.4 nM
GI50 (LOVO-DOX; [7]): 55.3 nM
TGI (LOVO-DOX; [7]): 8.42E−07 Molar
CC50 (LOVO-DOX; read-out: LC50, LOVO-DOX, 48 hours exposure, SRB): 12700 nM
GI50 (HT29; HT29, 48 hours exposure, SRB): 4.2 nM
TGI (HT29; HT29, 48 hours exposure, SRB): 1.69E−08 Molar
CC50 (HT29; read-out: LC50, HT29, 48 hours exposure, SRB): 12700 nM
GI50 (K562): 0.422 nM
TGI (K562): 8.18E−10 Molar
CC50 (K562): 3.15 nM
GI50 (LNCAP; LNCAP, 48 hours exposure, SRB): 0.2 nM
TGI (LNCAP; LNCAP, 48 hours exposure, SRB): 7.21E−10 Molar
CC50 (LNCAP; read-out: LC50, LNCAP, 48 hours exposure, SRB): 3.07 nM
GI50 (SK-BR3): 1.07 nM
TGI (SK-BR3): 3.38E−09 Molar
CC50 (SK-BR3): 9.54 nM
GI50 (LOVO; LOVO, 48 hours exposure, SRB): 3.55 nM
TGI (LOVO; LOVO, 48 hours exposure, SRB): 1.03E−08 Molar
CC50 (LOVO; read-out: LC50, LOVO, 48 hours exposure, SRB): 12700 nM
GI50 (MEL-28): 2.73 nM
TGI (MEL-28): 5.33E−09 Molar
CC50 (MEL-28): 10.4 nM
GI50 (DU145; DU145, 48 hours exposure, SRB): 2.04 nM
TGI (DU145; DU145, 48 hours exposure, SRB): 6.80E−09 Molar
CC50 (DU145; read-out: LC50, DU145, 48 hours exposure, SRB): 12700 nM
GI50 (IGROV-ET; [11]): 15.7 nM
TGI (IGROV-ET; [11]): 6.59E−08 Molar
CC50 (IGROV-ET; read-out: LC50, IGROV-ET, 48 hours exposure, SRB): 6510 nM
TGI (A549): 5.24E−09 Molar
GI50 (A549): 2.38 nM
CC50 (A549): 11.5 nM
GI50 (PANC-1): 3.22 nM
TGI (PANC-1): 8.37E−09 Molar
CC50 (PANC-1): 428 nM
Myelo [4]: 9.66E−11
Kidney [5]: 9.85E−08
